Read-outs that look alike come from different tables or passages of the source.
Tests used:
[1] = target: pre-formed polyQ46 or Exon1-polyQ46 aggregates (mHTT) (Homo sapiens, UniProt P42858, INS38QQQQQQQQQQQQQQQQQQQQQQQQQ); experiment: Q46_RBA radioligand binding assay (displacement of [3H]-radioligand)
Procedure: Binding of W to mHTT. A radioligand binding assay was developed to screen for compounds which can efficiently displace a radioligand detailed elsewhere (see, e.g., U.S. Patent Publication No. from US 2017/0292150) pre-formed polyQ46 or Exon1-polyQ46 aggregates (Q46_RBA).
Aggregation of polyQ peptides is initiated by cleavage of the tag from a GST-polyQ46 or from a MBP-Exon1-polyQ46 fusion protein. The pre-formed aggregates are then incubated with compounds which compete with the [^3H]-radiolabelled ligand for binding to the aggregates. The readout is a scintillation based MicroBeta measurement of radioligand bound to aggregates. The activity was indicated as: +++, <100 nM; ++, 100-500 nM, +, >500 nM.

[2] = target: VHL complex (VHL, Elongin B, Elongin C, Cul2, Rbx1) (Homo sapiens (Human), UniProt P40337); experiment: VHL SPR assay; assay type: binding
Text: (§1) Surface Plasmon Resonance (SPR) assays have been developed to test the affinity (KD) of VHL or CRBN-based compounds to respective recombinant ligase complex/domain.
(§2) The assays are based on surface plasmon resonance (SPR), which enables to measure the changes of the local refractive index due to changes of molecular mass on a gold chip surface in the case of a binding event and in a flowing system. To detect binding between both partners, the respective E3 ligase is immobilized to the chip surface, while the test compounds are flown over the chip surface at a steady velocity. The detected changes in the RU response are indicative of the binding event and are concentration dependent.
(§3) These tags provide the anchor for the capturing process to either an NTA or Streptavidin coated chip surface (immobilization level of 3,000-5,000 RU). Because of the rather complex structure of the VHL complex, it was additionally coupled to the chip surface by amino coupling to prevent any protein loss by disruption of the complex in the flowing system.
(§4) To detect binding of compounds and extract dissociation constants KD for the tested compounds to the immobilized E3 ligase, concentration response curves of the compounds were recorded. Compounds were usually tested in 10-pt dilutions up to 20 μM final concentration in assay buffer and were flown over the chip at 30 μL/min. The contact time for each cycle includes 90 s for association and 200 s for dissociation of compounds.
(§5) In the following tables, the Kd values are indicated as: +++, <100 nM; ++, 100-500 nM, +, >500 nM.

[3] = target: mouse CRBN thalidomide binding domain (mCRBN-TBD) (Mus musculus (Mouse), UniProt Q8C7D2); experiment: CRBN SPR assay; settings: immobilized mCRBN-TBD
Text: as §1, §2, §3, §4, §5

[4] = immobilized VHL complex, read-out: VHL SPR Kd

Sequence of VHL complex (VHL, Elongin B, Elongin C, Cul2, Rbx1) (P40337 whole entry, looked up): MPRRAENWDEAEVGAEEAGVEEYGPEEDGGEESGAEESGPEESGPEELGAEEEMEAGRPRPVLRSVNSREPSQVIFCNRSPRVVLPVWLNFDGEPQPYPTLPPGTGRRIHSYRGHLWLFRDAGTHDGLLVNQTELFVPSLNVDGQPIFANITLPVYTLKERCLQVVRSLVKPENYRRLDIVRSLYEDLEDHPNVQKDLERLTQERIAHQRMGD
Sequence of VHL complex (VHL, Elongin B, Elongin C, Cul2, Rbx1) (Q15370 whole entry partner, looked up): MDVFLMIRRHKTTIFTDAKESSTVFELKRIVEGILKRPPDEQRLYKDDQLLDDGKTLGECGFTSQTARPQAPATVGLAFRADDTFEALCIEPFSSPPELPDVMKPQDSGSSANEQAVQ
Sequence of VHL complex (VHL, Elongin B, Elongin C, Cul2, Rbx1) (Q15369 whole entry partner, looked up): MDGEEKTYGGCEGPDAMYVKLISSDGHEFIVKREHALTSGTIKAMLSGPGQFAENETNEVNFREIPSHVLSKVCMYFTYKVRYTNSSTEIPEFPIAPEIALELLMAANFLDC
Sequence of VHL complex (VHL, Elongin B, Elongin C, Cul2, Rbx1) (Q13617 whole entry partner, looked up): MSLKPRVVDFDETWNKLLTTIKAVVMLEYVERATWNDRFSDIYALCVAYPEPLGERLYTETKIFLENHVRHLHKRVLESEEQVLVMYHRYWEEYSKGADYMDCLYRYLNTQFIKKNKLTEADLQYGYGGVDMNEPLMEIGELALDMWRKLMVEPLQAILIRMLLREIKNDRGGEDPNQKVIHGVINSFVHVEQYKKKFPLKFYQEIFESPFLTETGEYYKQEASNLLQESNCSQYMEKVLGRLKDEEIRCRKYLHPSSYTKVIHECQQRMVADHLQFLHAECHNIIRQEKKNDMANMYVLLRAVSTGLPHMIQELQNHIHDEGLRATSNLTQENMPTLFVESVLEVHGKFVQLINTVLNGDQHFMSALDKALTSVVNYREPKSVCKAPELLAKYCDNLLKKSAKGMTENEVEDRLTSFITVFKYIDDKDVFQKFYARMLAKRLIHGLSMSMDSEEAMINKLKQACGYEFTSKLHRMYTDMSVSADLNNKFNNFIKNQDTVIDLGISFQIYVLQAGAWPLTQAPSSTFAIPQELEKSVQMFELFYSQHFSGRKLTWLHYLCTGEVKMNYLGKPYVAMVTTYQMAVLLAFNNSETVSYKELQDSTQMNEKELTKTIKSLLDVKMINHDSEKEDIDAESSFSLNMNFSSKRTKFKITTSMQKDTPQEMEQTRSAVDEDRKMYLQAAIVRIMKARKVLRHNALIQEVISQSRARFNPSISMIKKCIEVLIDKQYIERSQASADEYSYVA
Sequence of VHL complex (VHL, Elongin B, Elongin C, Cul2, Rbx1) (P62877 whole entry partner, looked up): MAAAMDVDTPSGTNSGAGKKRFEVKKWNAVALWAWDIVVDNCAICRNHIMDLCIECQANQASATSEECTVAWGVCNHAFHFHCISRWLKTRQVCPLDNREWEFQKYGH
Sequence of mouse CRBN thalidomide binding domain (mCRBN-TBD) (Q8C7D2 321-429): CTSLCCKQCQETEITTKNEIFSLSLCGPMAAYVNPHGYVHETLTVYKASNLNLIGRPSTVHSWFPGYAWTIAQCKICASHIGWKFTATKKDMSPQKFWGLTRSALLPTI

SMILES: CNc1c(-c2cn3c(n2)sc2cc(OCCOCCOCC(=O)N[C@H](C(=O)N4C[C@H](O)C[C@H]4C(=O)NCc4ccc(-c5scnc5C)cc4)C(C)(C)C)ccc23)nc2cc(C#N)ccn12 [Compound 2]
- IC50 [1]: < 100 nM
- Kd [2, 4]: 100 to 500 nM

SMILES: CNc1c(-c2cn3c(n2)sc2cc(OCCOCCOCCOCC(=O)N[C@H](C(=O)N4C[C@H](O)C[C@H]4C(=O)NCc4ccc(-c5scnc5C)cc4)C(C)(C)C)ccc23)nc2cc(C#N)ccn12 [Compound 3]
- IC50 [1]: < 100 nM
- Kd [2, 4]: 100 to 500 nM

SMILES: Cc1ncsc1-c1ccc(CNC(=O)[C@H]2C[C@H](O)CN2C(=O)[C@@H](C(C)C)N2Cc3ccccc3C2=O)c(OCCOCCOCCOCCOc2ccc(C(=O)Nc3ccc4oc(-c5ccc(=O)n(C)n5)nc4c3)nc2)c1 [Compound 11]
- IC50 [1]: < 100 nM
- Kd [2, 4]: > 500 nM

SMILES: Cc1ncsc1-c1ccc(CNC(=O)[C@@H]2C[C@@H](O)CN2C(=O)[C@H](C(C)C)N2Cc3ccccc3C2=O)c(OCCOCCOCCOCCOc2ccc(C(=O)Nc3ccc4oc(-c5ccc(=O)n(C)n5)nc4c3)nc2)c1 [Compound 20, 5-{2-[2-(2-{2-[2-({[(2S,4R)-4-Hydroxy-1-[(2S)-3-methyl-2-(1-oxo-2,3-dihydro-1H-isoindol-2-yl)butanoyl]pyrrolidin-2-yl]formamido}methyl)-5-(4-methyl-1,3-thiazol-5-yl)phenoxy]ethoxy}ethoxy)ethoxy]ethoxy}-N-[2-(1-methyl-6-oxo-1,6-dihydropyridazin-3-yl)-1,3-benzoxazol-5-yl]pyridine-2-carboxamide]
- IC50 [1]: < 100 nM
- Kd [2, 4]: 100 to 500 nM

SMILES: Cc1ncsc1-c1ccc(CNC(=O)[C@@H]2C[C@@H](O)CN2C(=O)[C@@H](NC(=O)CCOCCOc2ccc(C(=O)Nc3ccc4oc(-c5ccc(=O)n(C)n5)nc4c3)nc2)C(C)(C)C)cc1 [Compound 21]
- IC50 [1]: < 100 nM
- Kd [2, 4]: 100 to 500 nM

SMILES: Cc1ncsc1-c1ccc(CNC(=O)[C@@H]2C[C@@H](O)CN2C(=O)[C@@H](NC(=O)CCOCCOCCOc2ccc(C(=O)Nc3ccc4oc(-c5ccc(=O)n(C)n5)nc4c3)nc2)C(C)(C)C)cc1 [Compound 22, 5-{2-[2-(2-{[(2S)-1-[(2S,4R)-4-Hydroxy-2-({[4-(4-methyl-1,3-thiazol-5-yl)phenyl]methyl}carbamoyl)pyrrolidin-1-yl]-3,3-dimethyl-1-oxobutan-2-yl]carbamoyl}ethoxy)ethoxy]ethoxy}-N-[2-(1-methyl-6-oxo-1,6-dihydropyridazin-3-yl)-1,3-benzoxazol-5-yl]pyridine-2-carboxamide]
- IC50 [1]: < 100 nM
- Kd [2, 4]: < 100 nM

SMILES: Cc1ncsc1-c1ccc(CNC(=O)[C@@H]2C[C@@H](O)CN2C(=O)[C@@H](NC(=O)CCOCCOCCOCCOc2ccc(C(=O)Nc3ccc4oc(-c5ccc(=O)n(C)n5)nc4c3)nc2)C(C)(C)C)cc1 [Compound 23]
- IC50 [1]: < 100 nM
- Kd [2, 4]: < 100 nM

SMILES: Cc1ncsc1-c1ccc(CNC(=O)[C@@H]2C[C@@H](O)CN2C(=O)[C@@H](NC(=O)CCOCCOCCOCCOCCOCCOc2ccc(C(=O)Nc3ccc4oc(-c5ccc(=O)n(C)n5)nc4c3)nc2)C(C)(C)C)cc1 [Compound 24]
- IC50 [1]: < 100 nM
- Kd [2, 4]: < 100 nM

SMILES: Cc1ncsc1-c1ccc(CNC(=O)[C@@H]2C[C@@H](O)CN2C(=O)[C@@H](NC(=O)CCOCCOCCOCCOCCOCCOCCOCCOCCOc2ccc(C(=O)Nc3ccc4oc(-c5ccc(=O)n(C)n5)nc4c3)nc2)C(C)(C)C)cc1 [Compound 25]
- IC50 [1]: 100 to 500 nM
- Kd [2]: 100 to 500 nM

SMILES: CN1C(=O)CCC(N2C(=O)c3cccc(NCCOCCOCCOc4ccc(COc5ccc6oc(-c7ccc(=O)n(C)n7)nc6c5)nc4)c3C2=O)C1=O (centres unmarked) [Compound 30]
- IC50 [1]: < 100 nM
- Kd [3]: > 500 nM

SMILES: Cc1ncsc1-c1ccc(CNC(=O)[C@@H]2C[C@@H](O)CN2C(=O)[C@H](C(C)C)N2Cc3ccccc3C2=O)c(OCCOc2ccc(COc3ccc4oc(-c5ccc(=O)n(C)n5)nc4c3)nc2)c1 [Compound 43, (2S,4R)-4-hydroxy-1-((S)-3-methyl-2-(1-oxoisoindolin-2-yl)butan-oyl)-N-(2-(2-((6-(((2-(1-methyl-6-oxo-1,6-dihydropyridazin-3-yl)benzo[d]oxazol-5-yl)oxy)methyl)pyridin-3-yl)oxy)ethoxy)-4-(4-methylthiazol-5-yl)benzyl)pyrrolidine-2-carboxamide]
- IC50 [1]: < 100 nM
- Kd [2, 4]: > 500 nM

SMILES: Cc1ncsc1-c1ccc(CNC(=O)[C@@H]2C[C@@H](O)CN2C(=O)[C@H](C(C)C)N2Cc3ccccc3C2=O)c(OCCOCCOc2ccc(COc3ccc4oc(-c5ccc(=O)n(C)n5)nc4c3)nc2)c1 [Compound 44]
- IC50 [1]: 100 to 500 nM
- Kd [2, 4]: > 500 nM

SMILES: Cc1ncsc1-c1ccc(CNC(=O)[C@@H]2C[C@@H](O)CN2C(=O)[C@H](C(C)C)N2Cc3ccccc3C2=O)c(OCCOCCOCCOc2ccc(COc3ccc4oc(-c5ccc(=O)n(C)n5)nc4c3)nc2)c1 [Compound 45]
- IC50 [1]: 100 to 500 nM
- Kd [2, 4]: > 500 nM

SMILES: Cc1ncsc1-c1ccc(CNC(=O)[C@@H]2C[C@@H](O)CN2C(=O)[C@H](C(C)C)N2Cc3ccccc3C2=O)c(OCCOCCOCCOCCOc2ccc(COc3ccc4oc(-c5ccc(=O)n(C)n5)nc4c3)nc2)c1 [Compound 46]
- IC50 [1]: 101 nM
- Kd [2, 4]: > 500 nM

SMILES: Cc1ncsc1-c1ccc(CNC(=O)[C@@H]2C[C@@H](O)CN2C(=O)[C@@H](NC(=O)COCCOCCOc2ccc(COc3ccc4oc(-c5ccc(=O)n(C)n5)nc4c3)nc2)C(C)(C)C)cc1 [Compound 47, (2S,4R)-1-[(2S)-3,3-Dimethyl-2-{2-[2-(2-{[6-({[2-(1-methyl-6-oxo-1,6-dihydropyridazin-3-yl)-1,3-benzoxazol-5-yl]oxy}methyl)pyridin-3-yl]oxy}ethoxy)ethoxy]acetamido}butanoyl]-4-hydroxy-N-{[4-(4-methyl-1,3-thiazol-5-yl)phenyl]methyl}pyrrolidine-2-carboxamide]
- IC50 [1]: < 100 nM
- Kd [2, 4]: 100 to 500 nM

SMILES: Cc1ncsc1-c1ccc(CNC(=O)[C@H]2C[C@H](O)CN2C(=O)[C@H](NC(=O)COCCOCCOc2ccc(COc3ccc4oc(-c5ccc(=O)n(C)n5)nc4c3)nc2)C(C)(C)C)cc1 [Compound 48]
- IC50 [1]: < 100 nM
- Kd [2, 4]: > 500 nM

SMILES: Cc1ncsc1-c1ccc(CNC(=O)[C@@H]2C[C@@H](O)CN2C(=O)[C@@H](NC(=O)COCCOCCOCCOc2ccc(COc3ccc4oc(N5CCNCC5)nc4c3)nc2)C(C)(C)C)cc1 [Compound 53, (2S,4R)-1-((S)-2-(tert-butyl)-4-oxo-14-((6-(((2-(piperazin-1-yl)benzo-[d]oxazol-5-yl)oxy)methyl)pyridin-3-yl)oxy)-6,9,12-trioxa-3-azatetradecanoyl)-4-hydroxy-N-(4-(4-methylthiazol-5-yl)benzyl)pyrrolidine-2-carboxamide]
- IC50 [1]: > 500 nM
- Kd [2, 4]: 100 to 500 nM

SMILES: Cc1ncsc1-c1ccc(CNC(=O)[C@@H]2C[C@@H](O)CN2C(=O)[C@@H](NC(=O)COCCOCCOCCOCCOc2ccc(COc3ccc4oc(N5CCNCC5)nc4c3)nc2)C(C)(C)C)cc1 [Compound 54]
- IC50 [1]: > 500 nM
- Kd [2, 4]: > 500 nM

SMILES: COc1ccc(COc2ccc3oc(N4CCN(CCOCCOCCOCC(=O)N[C@H](C(=O)N5C[C@H](O)C[C@H]5C(=O)NCc5ccc(-c6scnc6C)cc5)C(C)(C)C)CC4)nc3c2)nc1 [Compound 55, (2S,4R)-1-((S)-2-(tert-butyl)-14-(4-(5-((5-methoxypyridin-2-yl)meth-oxy)benzo[d]oxazol-2-yl)piperazin-1-yl)-4-oxo-6,9,12-trioxa-3-azatetradecanoyl)-4-hydroxy-N-(4-(4-methylthiazol-5-yl)benzyl)pyrrolidine-2-carboxamide]
- IC50 [1]: 100 to 500 nM
- Kd [2, 4]: 100 to 500 nM

SMILES: COc1ccc(COc2ccc3oc(N4CCN(CCOCCOCCOCCOCC(=O)N[C@H](C(=O)N5C[C@H](O)C[C@H]5C(=O)NCc5ccc(-c6scnc6C)cc5)C(C)(C)C)CC4)nc3c2)nc1 [Compound 56]
- IC50 [1]: > 500 nM
- Kd [2, 4]: 100 to 500 nM

SMILES: Cc1ncsc1-c1ccc(CNC(=O)[C@@H]2C[C@@H](O)CN2C(=O)[C@@H](NC(=O)COCCOCCOCCOCCOc2ccc(COc3ccc4oc(N5CCn6ccnc6C5)nc4c3)nc2)C(C)(C)C)cc1 [Compound 57]
- IC50 [1]: < 100 nM
- Kd [2, 4]: 100 to 500 nM

SMILES: Cc1ncsc1-c1ccc(CNC(=O)[C@@H]2C[C@@H](O)CN2C(=O)[C@@H](NC(=O)COCCOCCOCCOc2ccc(COc3ccc4oc(N5CCn6ccnc6C5)nc4c3)nc2)C(C)(C)C)cc1 [Compound 58, (2S,4R)-1-((S)-2-(tert-butyl)-14-((6-(((2-(5,6-dihydroimidazo[1,2-a]pyrazin-7(8H)-yl)benzo[d]oxazol-5-yl)oxy)methyl)pyridin-3-yl)oxy)-4-oxo-6,9,12-trioxa-3-azatetra-decan-1-oyl)-4-hydroxy-N-(4-(4-methylthiazol-5-yl)benzyl)-pyrrolidine-2-carboxamide]
- IC50 [1]: 100 to 500 nM
- Kd [2, 4]: > 500 nM

From US11389438B2 (CHDI Foundation, Inc., priority 2019, dated 2022)
